According to US11684614B2, “Formulations of hydroxypyridonate actinide/lanthanide decorporation agents” (priority 2017, dated 2023):
“And” between values parts separate entries of the source, which are not always exact repeats. Equal entries are not always repeated.

What was measured:
[1] = Distribution coefficient measurement; type: physicochemical; settings: for Dow / Log(Dow): listed as 3,4,3-LI(1,2-HOPO)
CYP1A2 = target: T1, CYP1A2 (Homo sapiens, UniProt P05177); assay: CYP inhibition; type: in vitro ADME
T1 sequence (P05177 1-516): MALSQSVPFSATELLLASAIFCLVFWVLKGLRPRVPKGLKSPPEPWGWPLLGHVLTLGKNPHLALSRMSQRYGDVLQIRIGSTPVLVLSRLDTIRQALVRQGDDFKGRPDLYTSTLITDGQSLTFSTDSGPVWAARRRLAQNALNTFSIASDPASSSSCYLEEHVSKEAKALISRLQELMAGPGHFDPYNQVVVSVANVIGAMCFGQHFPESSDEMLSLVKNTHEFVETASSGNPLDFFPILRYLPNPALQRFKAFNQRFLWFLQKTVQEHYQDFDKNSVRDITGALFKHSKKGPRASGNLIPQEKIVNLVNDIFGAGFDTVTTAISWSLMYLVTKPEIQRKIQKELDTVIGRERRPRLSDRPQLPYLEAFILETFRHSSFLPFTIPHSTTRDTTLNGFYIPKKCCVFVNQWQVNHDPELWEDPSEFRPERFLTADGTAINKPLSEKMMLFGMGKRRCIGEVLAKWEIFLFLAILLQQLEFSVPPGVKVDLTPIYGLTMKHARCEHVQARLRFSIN

[2] = GLP single oral dose pharmacokinetic assessment in beagle dogs; type: in vivo
Method: Pharmacokinetic parameters in beagle dogs after a single oral administration of formulated capsules was determined in a GLP study. A validated bioanalytical method was used to determine the plasma concentration in 3 dogs/sex after capsule administration of 37.5, 75, and 150 mg/kg (50, 100, and 200 μmol/kg) of clinically formulated 3,4,3-L1(1,2-HOPO). […] Similarly, mean exposure, based on AUCinf, was 1979±777 hr·ng/ml and 4741 hr·ng/ml for low-dose males and females, respectively; 4317±1721 hr·ng/ml and 8610 hr·ng/ml for mid-dose males and females, respectively; and 12022±5458 hr·ng/ml and 8305±1607 hr·ng/ml for high-dose males and females, respectively. […] The mean t½ was consistently short across dose groups and ranged from 0.5 to 0.9 hr.

CYP3A4 = CYP3A4 (Homo sapiens, UniProt P08684); assay: CYP inhibition; type: in vitro ADME
Chain of CYP3A4 (P08684 whole entry): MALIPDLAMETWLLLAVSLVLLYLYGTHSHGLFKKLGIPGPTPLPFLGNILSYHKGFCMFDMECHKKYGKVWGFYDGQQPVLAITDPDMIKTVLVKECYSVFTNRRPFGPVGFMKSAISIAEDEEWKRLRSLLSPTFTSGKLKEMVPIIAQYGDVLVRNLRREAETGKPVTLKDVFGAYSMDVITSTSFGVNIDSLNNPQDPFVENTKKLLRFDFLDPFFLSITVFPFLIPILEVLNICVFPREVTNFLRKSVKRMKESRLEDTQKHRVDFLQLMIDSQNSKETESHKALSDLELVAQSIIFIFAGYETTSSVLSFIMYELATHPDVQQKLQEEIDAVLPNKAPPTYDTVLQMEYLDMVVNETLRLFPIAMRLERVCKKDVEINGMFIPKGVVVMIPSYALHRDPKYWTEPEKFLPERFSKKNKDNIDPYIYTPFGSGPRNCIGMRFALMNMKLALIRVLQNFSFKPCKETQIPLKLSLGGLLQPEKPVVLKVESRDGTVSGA

[3] = Plasma protein binding, human; type: in vitro ADME; settings: tested at 10 μg/ml
Method: Plasma protein binding differed across species; it was greatest in dog (95%), intermediate in human (29%), and lowest in rat (5%) when tested at 10 μg/ml.

[4] = Stability in gastric fluid; type: in vitro ADME
[5] = 7-day oral gavage study in Sprague Dawley rats (SRI No. M801-10); type: in vivo
[6] = GLP single oral dose cardiovascular assessment in beagle dogs (electrocardiogram, blood pressure); type: in vivo; settings: 37.5, 75, or 150 mg/kg single oral dose
Method: Cardiovascular parameters in beagle dogs after a single oral administration of formulated capsules was determined in a GLP study
Electrocardiograms and blood pressure were evaluated from 3 male and 3 female beagle dogs per dose group (0, 37.5, 75, or 150 mg/kg) at pretest, 1 and 4 hours post-dose, and 7 days after a single oral dose of formulated material (TABLE 8.1). […] Instances of increased or decreased blood pressure (hypertension or hypotension) in various dogs were considered sporadic or due to stress, excitement, or struggling during the time of recording and not test article related. In summary, electrocardiogram and blood pressure assessments in beagle dogs raised no cardiovascular safety concerns.

CYP2C19 = CYP2C19 (Homo sapiens, UniProt P33261); assay: CYP inhibition; type: in vitro ADME
Chain of CYP2C19 (P33261 whole entry): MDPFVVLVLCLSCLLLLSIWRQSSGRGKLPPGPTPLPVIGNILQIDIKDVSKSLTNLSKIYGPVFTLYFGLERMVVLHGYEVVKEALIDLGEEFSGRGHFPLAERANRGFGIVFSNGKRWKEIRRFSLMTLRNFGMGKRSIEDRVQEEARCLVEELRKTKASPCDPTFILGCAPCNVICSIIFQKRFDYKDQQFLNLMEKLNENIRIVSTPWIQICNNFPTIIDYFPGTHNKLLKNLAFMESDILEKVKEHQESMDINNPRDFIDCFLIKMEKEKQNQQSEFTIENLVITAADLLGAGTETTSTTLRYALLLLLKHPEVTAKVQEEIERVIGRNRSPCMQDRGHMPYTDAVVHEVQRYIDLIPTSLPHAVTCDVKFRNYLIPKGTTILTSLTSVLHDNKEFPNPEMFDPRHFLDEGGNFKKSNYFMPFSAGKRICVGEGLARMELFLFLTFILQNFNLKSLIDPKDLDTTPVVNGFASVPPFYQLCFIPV

[7] = 28-day oral gavage study in Sprague Dawley rats (SRI No. M512-07); type: in vivo
CYP2C9 = CYP2C9 (Homo sapiens, UniProt P11712); assay: CYP inhibition; type: in vitro ADME
Chain of CYP2C9 (P11712 whole entry): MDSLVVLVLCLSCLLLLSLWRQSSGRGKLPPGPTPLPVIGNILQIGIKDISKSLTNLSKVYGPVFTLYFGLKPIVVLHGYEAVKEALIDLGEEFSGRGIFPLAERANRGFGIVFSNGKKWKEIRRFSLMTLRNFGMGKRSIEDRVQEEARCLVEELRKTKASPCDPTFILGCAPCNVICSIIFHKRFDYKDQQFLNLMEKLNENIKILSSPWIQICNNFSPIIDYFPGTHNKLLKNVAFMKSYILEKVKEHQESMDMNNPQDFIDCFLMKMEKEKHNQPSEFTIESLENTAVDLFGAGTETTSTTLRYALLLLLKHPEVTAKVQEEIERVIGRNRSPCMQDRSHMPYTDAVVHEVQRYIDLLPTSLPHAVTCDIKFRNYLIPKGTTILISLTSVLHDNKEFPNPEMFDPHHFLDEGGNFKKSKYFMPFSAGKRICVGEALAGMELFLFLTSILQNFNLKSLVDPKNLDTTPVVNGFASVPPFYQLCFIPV

[8] = Buffering Agent 1: 7.5 E−02 M HCl, pH 1.18, samples A11-A13
[9] = Buffering Agent 1: 7.5 E−02 M HCl, pH 1.20, samples B11-B13
[10] = Buffering Agent 2: 7.5 E−03 M HCl, pH 2.15, samples A11-A13
[11] = Buffering Agent 2: 7.5 E−03 M HCl, pH 2.16, samples B11-B13
[12] = Buffering Agent 3: 7.5 E−04 M HCl, pH 3.21, samples A31-A33
[13] = Buffering Agent 4: 1 E−02 M Acetic Acid, pH 4.19, samples A41-A43
[14] = Buffering Agent 5: 1 E−02 M Acetic Acid, pH 5.13, samples A51-A53
[15] = Buffering Agent 5: 1 E−02 M Acetic Acid, pH 5.20, samples B51-B53
[16] = Buffering Agent 6: 1 E−02 M MES, pH 6.30, samples A61-A63
[17] = Buffering Agent 7: 1 E−02 M HEPES, pH 6.75, samples A71-A73
[18] = Buffering Agent 8: 1 E−02 M HEPES, pH 7.42, samples A81-A83
[19] = Buffering Agent 9: 1 E−02 M HEPES, pH 8.00, samples A91-A93

O=C(NCCCN(CCCCN(CCCNC(=O)c1cccc(=O)n1O)C(=O)c1cccc(=O)n1O)C(=O)c1cccc(=O)n1O)c1cccc(=O)n1O [3,4,3-L1(1,2-HOPO)]
Dow [1, 8]: 0.122 and 0.115 and 0.112
Log(Dow) [1, 8]: −0.915 and −0.938 and −0.952
Log(Dow), unlabelled summary row (mean of samples) ([1]; Buffering Agent 1: 7.5 E−02 M HCl, pH 1.18, series A): −0.935
Dow [1, 9]: 0.318 and 0.327 and 0.285
Log(Dow) [1, 9]: −0.497 and −0.485 and −0.545
Log(Dow), unlabelled summary row (mean of samples) ([1]; Buffering Agent 1: 7.5 E−02 M HCl, pH 1.20, series B): −0.509
Dow [1, 10]: 0.093 and 0.105 and 0.110
Log(Dow) [1, 10]: −1.031 and −0.980 and −0.958
Log(Dow), unlabelled summary row (mean of samples) ([1]; Buffering Agent 2: 7.5 E−03 M HCl, pH 2.15, series A): −0.990
Dow [1, 11]: 0.503 and 0.491 and 0.469
Log(Dow) [1, 11]: −0.299 and −0.309 and −0.329
Log(Dow), unlabelled summary row (mean of samples) ([1]; Buffering Agent 2: 7.5 E−03 M HCl, pH 2.16, series B): −0.312
Log(Dow), unlabelled summary row (mean of samples) ([1]; Buffering Agent 3: 7.5 E−04 M HCl, pH 3.13, series B): −1.499
Dow [1, 12]: 0.180 and 0.170 and 0.184
Log(Dow) [1, 12]: −0.744 and −0.769 and −0.735
Log(Dow), unlabelled summary row (mean of samples) ([1]; Buffering Agent 3: 7.5 E−04 M HCl, pH 3.21, series A): −0.750
Log(Dow), unlabelled summary row (mean of samples) ([1]; Buffering Agent 4: 1 E−02 M Acetic Acid, pH 4.00, series B): −1.566
Dow [1, 13]: 0.076 and 0.061 and 0.068
Log(Dow) [1, 13]: −1.119 and −1.218 and −1.166
Log(Dow), unlabelled summary row (mean of samples) ([1]; Buffering Agent 4: 1 E−02 M Acetic Acid, pH 4.19, series A): −1.168
Dow [1, 14]: 0.044 and 0.027 and 0.050
Log(Dow) [1, 14]: −1.360 and −1.564 and −1.299
Log(Dow), unlabelled summary row (mean of samples) ([1]; Buffering Agent 5: 1 E−02 M Acetic Acid, pH 5.13, series A): −1.408
Dow [1, 15]: 0.056 and 0.082 and 0.103
Log(Dow) [1, 15]: −1.251 and −1.086 and −0.989
Log(Dow), unlabelled summary row (mean of samples) ([1]; Buffering Agent 5: 1 E−02 M Acetic Acid, pH 5.20, series B): −1.109
Log(Dow) ([1]; Buffering Agent 6: 1 E−02 M MES, pH 6.15, samples B61-B63): −1.374 and −1.645
Log(Dow), unlabelled summary row (mean of samples) ([1]; Buffering Agent 6: 1 E−02 M MES, pH 6.15, series B (B61 prints #NUM!)): −1.510
Dow [1, 16]: 0.064 and 0.077 and 0.082
Log(Dow) [1, 16]: −1.191 and −1.113 and −1.086
Log(Dow), unlabelled summary row (mean of samples) ([1]; Buffering Agent 6: 1 E−02 M MES, pH 6.30, series A): −1.130
Dow [1, 17]: 0.150 and 0.120 and 0.105
Log(Dow) [1, 17]: −0.824 and −0.921 and −0.977
Log(Dow), unlabelled summary row (mean of samples) ([1]; Buffering Agent 7: 1 E−02 M HEPES, pH 6.75, series A): −0.908
Log(Dow), unlabelled summary row (mean of samples) ([1]; Buffering Agent 7: 1 E−02 M HEPES, pH 6.83, series B): −1.680
Dow [1, 18]: 0.130 and 0.132 and 0.107
Log(Dow) [1, 18]: −0.885 and −0.879 and −0.970
Log(Dow), unlabelled summary row (mean of samples) ([1]; Buffering Agent 8: 1 E−02 M HEPES, pH 7.42, series A): −0.912
Log(Dow), unlabelled summary row (mean of samples) ([1]; Buffering Agent 8: 1 E−02 M HEPES, pH 7.46, series B): −1.173
Dow [1, 19]: 0.110 and 0.074 and 0.132
Log(Dow) [1, 19]: −0.957 and −1.128 and −0.879
Log(Dow), unlabelled summary row (mean of samples) ([1]; Buffering Agent 9: 1 E−02 M HEPES, pH 8.00, series A): −0.988
Log(Dow), unlabelled summary row (mean of samples) ([1]; Buffering Agent 9: 1 E−02 M HEPES, pH 8.00, series B): −1.920
inhibition of CYP1A2 activity (CYP1A2): did not inhibit
mean AUCinf ([2]; high-dose (150 mg/kg) females): 8305 ± 1607 ng·h/mL
mean AUCinf ([2]; high-dose (150 mg/kg) males): 12022 ± 5458 ng·h/mL
mean Cmax and AUCinf, females compared with males ([2]; low and mid doses): 1.7- to 2.4 fold
mean AUCinf ([2]; low-dose (37.5 mg/kg) females): 4741 ng·h/mL
mean AUCinf ([2]; low-dose (37.5 mg/kg) males): 1979 ± 777 ng·h/mL
mean AUCinf ([2]; mid-dose (75 mg/kg) females): 8610 ng·h/mL
mean AUCinf ([2]; mid-dose (75 mg/kg) males): 4317 ± 1721 ng·h/mL
mean t½ ([2]; oral, across dose groups, dogs): 30 to 54 min
Tmax ([2]; single oral capsule dose, 37.5, 75, and 150 mg/kg, dogs): 36 to 66 min
inhibition of CYP3A4 activity (CYP3A4): did not inhibit
Plasma protein binding [3]: 29%
stability in gastric fluid [4]: degraded slightly
renal findings ([5]; 7 days of oral gavage): no renal findings
soft stools or diarrhea ([5]; oral gavage 400-1300 mg/kg (532-1732 μmol/kg) for 7 days): not observed
electrocardiographic, heart rate, or blood pressure findings [6]: no electrocardiographic, heart rate, or blood pressure findings
inhibition of CYP2C19 activity (CYP2C19): did not inhibit
renal findings ([7]; 28 days of oral gavage): no renal findings
soft stools or diarrhea ([7]; oral gavage 7.7-76.9 mg/kg (10-102 μmol/kg) for 28 days): not observed
inhibition of CYP2C9 activity (CYP2C9): did not inhibit
